Laboratory results reported in publication PMC4980843 (European journal of medicinal chemistry, 2009).
Read-outs that look alike come from different tables or passages of the source.

Tests used:
[1] = tested on: human HT-29 colon tumor cell line; test: Tumor cell growth inhibition, Cell Titer Glo assay, 72 h; format: cell-based; conditions: HT-29 cells
[2] = molecular target: human PDE3A isozyme (Homo sapiens, UniProt Q14432); test: IMAP fluorescence polarization phosphodiesterase assay; format: biochemical; conditions: for % PDE3 Inhibition at 50 μM, cGMP: cGMP as substrate
Chain of human PDE3A isozyme (Q14432 whole entry): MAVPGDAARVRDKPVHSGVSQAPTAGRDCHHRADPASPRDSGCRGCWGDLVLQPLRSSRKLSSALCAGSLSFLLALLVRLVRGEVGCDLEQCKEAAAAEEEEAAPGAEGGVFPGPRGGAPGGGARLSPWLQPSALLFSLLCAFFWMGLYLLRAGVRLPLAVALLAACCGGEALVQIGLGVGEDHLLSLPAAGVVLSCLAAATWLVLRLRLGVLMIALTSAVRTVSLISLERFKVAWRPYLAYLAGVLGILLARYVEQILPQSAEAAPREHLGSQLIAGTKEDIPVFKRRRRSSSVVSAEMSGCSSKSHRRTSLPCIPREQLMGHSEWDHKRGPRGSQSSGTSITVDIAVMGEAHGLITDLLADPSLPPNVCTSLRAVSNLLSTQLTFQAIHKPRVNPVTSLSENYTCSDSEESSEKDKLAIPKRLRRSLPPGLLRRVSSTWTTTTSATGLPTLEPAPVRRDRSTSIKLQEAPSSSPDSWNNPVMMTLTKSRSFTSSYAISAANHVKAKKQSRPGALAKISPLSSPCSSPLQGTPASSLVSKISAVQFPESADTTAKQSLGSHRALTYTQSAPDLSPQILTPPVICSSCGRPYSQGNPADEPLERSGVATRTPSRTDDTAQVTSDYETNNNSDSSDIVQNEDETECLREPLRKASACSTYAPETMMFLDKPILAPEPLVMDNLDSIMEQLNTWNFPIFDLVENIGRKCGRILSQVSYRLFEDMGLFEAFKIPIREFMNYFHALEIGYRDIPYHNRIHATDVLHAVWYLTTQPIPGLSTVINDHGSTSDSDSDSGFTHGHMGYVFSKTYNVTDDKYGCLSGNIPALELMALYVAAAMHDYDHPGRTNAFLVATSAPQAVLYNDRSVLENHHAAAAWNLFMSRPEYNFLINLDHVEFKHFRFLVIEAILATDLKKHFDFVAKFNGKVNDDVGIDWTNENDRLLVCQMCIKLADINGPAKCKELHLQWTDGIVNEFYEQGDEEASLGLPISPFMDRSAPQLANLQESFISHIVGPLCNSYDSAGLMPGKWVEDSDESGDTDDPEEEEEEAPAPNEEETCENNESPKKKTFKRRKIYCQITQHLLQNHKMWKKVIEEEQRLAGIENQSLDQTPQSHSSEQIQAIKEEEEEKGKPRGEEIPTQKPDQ

Compound | tumor cell growth inhibitory activity (in words) [1] | other results
N#Cc1c(-c2ccccc2O)cc(-c2ccsc2)[nH]c1=O [Compound 19, 4-(2-Hydroxyphenyl)-2-oxo-6-thiophen-3-yl-1,2-dihydropyridine-3-carbonitrile] | displayed tumor cell growth inhibitory activity | 
N#Cc1c(-c2cccc(Cl)c2)cc(-c2ccccc2)[nH]c1=O [Compound 15, 4-(3-Chlorophenyl)-2-oxo-6-phenyl-1,2-dihydropyridine-3-carbonitrile] | displayed tumor cell growth inhibitory activity | 
CCOc1ccccc1-c1cc(-c2ccsc2)[nH]c(=N)c1C#N [Compound 27, 4-(2-Ethoxyphenyl)-2-imino-6-(thiophen-3-yl)-1,2-dihydropyridine-3-carbonitrile] | displayed tumor cell growth inhibitory activity | 
COc1ccc(-c2cc(-c3ccsc3)[nH]c(=N)c2C#N)cc1 [Compound 28, 2-Imino-4-(4-methoxyphenyl)-6-(thiophen-3-yl)-1,2-dihydropyridine-3-carbonitrile] | displayed tumor cell growth inhibitory activity | 
CCOc1ccc(-c2cc(-c3ccsc3)[nH]c(=N)c2C#N)cc1 [Compound 26, 4-(4-Ethoxyphenyl)-2-imino-6-(thiophen-3-yl)-1,2-dihydropyridine-3-carbonitrile] | no tumor cell growth inhibitory activity | % PDE3 Inhibition at 50 μM, cGMP ([2]; 50 μM): > 50%; inhibition at 50 µM ([2]; read-out: % PDE3 Inhibition at 50 μM, cAMP, 50 μM, cAMP as substrate): > 50%
N#Cc1c(-c2ccccc2O)cc(-c2ccc(Br)cc2)[nH]c1=O [Compound 1, 6-(4-Bromophenyl)-4-(2-hydroxyphenyl)-2-oxo-1,2-dihydropyridine-3-carbonitrile] | displayed tumor cell growth inhibitory activity | 
CCOc1ccccc1-c1cc(-c2ccsc2)[nH]c(=O)c1C#N [Compound 21, 4-(2-Ethoxyphenyl)-2-oxo-6-thiophen-3-yl-1,2-dihydropyridine-3 carbonitrile] | displayed tumor cell growth inhibitory activity | 
COc1ccccc1-c1cc(-c2ccsc2)[nH]c(=N)c1C#N [Compound 29, 2-Imino-4-(2-methoxyphenyl)-6-(thiophen-3-yl)-1,2-dihydropyridine-3-carbonitrile] | displayed tumor cell growth inhibitory activity | inhibition at 50 µM ([2]; read-out: % PDE3 Inhibition at 50 μM, cGMP, 50 μM, cGMP as substrate): -95%
2-Imino-4-phenyl-6-(thiophen-3-yl)-1,2-dihydropyridine-3-carbonitrile [Compound 25] |  | % PDE3 Inhibition at 50 μM, cAMP ([2]; 50 μM, cAMP as substrate): 21%; % PDE3 Inhibition at 50 μM, cGMP ([2]; 50 μM): 26%
COc1ccc(OC)c(-c2cc(-c3ccc(Br)cc3)[nH]c(=N)c2C#N)c1 [Compound 9, 6-(4-Bromophenyl)-4-(2,5-dimethoxyphenyl)-2-imino1,2-dihydropyridine3-carbonitrile] | displayed tumor cell growth inhibitory activity | 
